Patent publication US7393812B2, “Methylidene mevalonates and their use as herbicides” (Dow AgroSciences LLC, priority 2004, dated 2008)

Key:
Assay type in all cases: in vivo
Details in all cases: 16 days after treatment
[1] = tested on: blackgrass (Alopecurus myosuroides, ALOMY); test: General herbicidal evaluation, postemergence
Excerpt: (§1) Applications of methylidene mevalonate were made either to the foliage (postemergence) or soil (preemergence). Seeds of sunflower (Helianthus annus, HELAN), morningglory (Ipomoea hederacea, IPOHE) velvetleaf (Abutilon theophrasti, ABUTH), pigweed (Amaranthus spp., AMARE), barnyardgrass (Echinochloa crusgalli, ECHCG), giant foxtail (Setaria faberi, SETFA), wild oats (Avena fatua, AVEFA), and blackgrass (Alopecurus myosuroides, ALOMY) were planted in mineral soil (sandy clay loam, 51% sand, 26% silt, 23% clay, 2.8% O.M., pH 7.8) and Metro-mix (Bulk Sak, Inc., Malvern, Ark., USA) for preemergence and postemergence treatments, respectively. Pots receiving preemergence treatments were watered immediately following application. Prior to postemergence treatment, plants were grown in the greenhouse (16 h photoperiod, 27 C) and thinned to a density of 2 to 15 plants pot^−1, depending on species. At the time of postemergence applications, plants were 8-12 days old, 3 to 10 cm in height, and in the 1- to 3-true-leaf stage. Natural light in the greenhouse was supplemented with metal halide lights that provided an average photosynthetic photon flux of 500 μmol m^−2s^−1.
(§2) A sample of sodium methylidene mevalonate was dissolved in 4 mL of distilled water followed by 10 mL of formulation stock “B” (200 mL isopropanol, 20 mL crop oil concentrate, 0.4 g Triton X-155 [Sigma Chemical Co., St. Louis, Mo. 62718], and 78 mL water). This was followed by three 1:1 (v/v) serial dilutions using formulation stock “C” (100 mL isopropanol, 10 mL crop oil concentrate, 0.2 g Triton X-155, 390 mL water, 485 mL acetone and 15 mL DMSO).
(§3) Treatments were made at four different doses (4000, 2000, 1000, and 500 g ha^−1). For preemergence treatments, 1.75 mL of spray solution were applied to the soil surface in each pot using a glass Cornwall syringe fitted with a Teejet SS8001E flat-fan nozzle (Spraying Systems Co., Wheaton, Ill. 60189-7900). For postemergence applications, the foliage of the test plants was sprayed using a DeVilbiss atomizer (DeVilbiss Health Car, Inc., Somerset, Pa. 15501) driven by compressed air at a pressure of 22 kPa. Untreated controls were included.
(§4) Pots were placed in the greenhouse following compound application. Pots from postemergence and preemergence were sub-irrigated and top-watered, respectively, as needed for the duration of the test. […]

[2] = tested on: morningglory (Ipomoea hederacea, IPOHE); test: General herbicidal evaluation, postemergence
Excerpt: as §1, §2, §3, §4

[3] = tested on: sunflower (Helianthus annus, HELAN); test: General herbicidal evaluation, postemergence
Excerpt: as §1, §2, §3, §4

[4] = tested on: velvetleaf (Abutilon theophrasti, ABUTH); test: General herbicidal evaluation, postemergence
Excerpt: as §1, §2, §3, §4

[5] = tested on: pigweed (Amaranthus spp., AMARE); test: General herbicidal evaluation, postemergence
Excerpt: as §1, §2, §3, §4

[6] = tested on: barnyardgrass (Echinochloa crusgalli, ECHCG); test: General herbicidal evaluation, postemergence
Excerpt: as §1, §2, §3, §4

[7] = tested on: wild oats (Avena fatua, AVEFA); test: General herbicidal evaluation, postemergence
Excerpt: as §1, §2, §3, §4

[8] = tested on: giant foxtail (Setaria faberi, SETFA); test: General herbicidal evaluation, postemergence
Excerpt: as §1, §2, §3, §4

[9] = tested on: blackgrass (Alopecurus myosuroides, ALOMY); test: General herbicidal evaluation, preemergence
Excerpt: as §1, §2, §3
(§5) Pots were placed in the greenhouse following compound application. Pots from postemergence and preemergence were sub-irrigated and top-watered, respectively, as needed for the duration of the test. Visual injury ratings were taken 9 and 16 days after treatment for postemergence and preemergence applications, respectively, on a 0 to 100 scale where 0 represents no injury and 100 represents complete necrosis.

[10] = tested on: morningglory (Ipomoea hederacea, IPOHE); test: General herbicidal evaluation, preemergence
Excerpt: as §1, §2, §3, §5

[11] = tested on: velvetleaf (Abutilon theophrasti, ABUTH); test: General herbicidal evaluation, preemergence
Excerpt: as §1, §2, §3, §5

[12] = tested on: pigweed (Amaranthus spp., AMARE); test: General herbicidal evaluation, preemergence
Excerpt: as §1, §2, §3, §5

[13] = tested on: barnyardgrass (Echinochloa crusgalli, ECHCG); test: General herbicidal evaluation, preemergence
Excerpt: as §1, §2, §3, §5

[14] = tested on: wild oats (Avena fatua, AVEFA); test: General herbicidal evaluation, preemergence
Excerpt: as §1, §2, §3, §5

[15] = tested on: giant foxtail (Setaria faberi, SETFA); test: General herbicidal evaluation, preemergence
Excerpt: as §1, §2, §3, §5

Measured: Visual Injury (%)

C=C(CO)C(C)(O)CC(=O)O (stereo not drawn) [methylidene mevalonate, 3-hydroxy-4-(hydroxymethyl)-3-methylpent-4-enoic acid]
0%: [9]; 0.5 kg ha^−1, ALOMY | [9]; 1.0 kg ha^−1, ALOMY | [10]; 0.5 kg ha^−1, IPOHE | [10]; 1.0 kg ha^−1, IPOHE | [10]; 2.0 kg ha^−1, IPOHE | [11]; 0.5 kg ha^−1, ABUTH | [11]; 1.0 kg ha^−1, ABUTH | [12]; 0.5 kg ha^−1, AMARE | [12]; 1.0 kg ha^−1, AMARE | [13]; 0.5 kg ha^−1, ECHCG | [13]; 1.0 kg ha^−1, ECHCG | [14]; 0.5 kg ha^−1, AVEFA | [14]; 1.0 kg ha^−1, AVEFA | [14]; 2.0 kg ha^−1, AVEFA | [15]; 0.5 kg ha^−1, SETFA | [15]; 1.0 kg ha^−1, SETFA
30%: [1]; 0.5 kg ha^−1, ALOMY | [1]; 1.0 kg ha^−1, ALOMY | [3]; 0.5 kg ha^−1, HELAN | [5]; 0.5 kg ha^−1, AMARE | [9]; 4.0 kg ha^−1, ALOMY | [11]; 4.0 kg ha^−1, ABUTH | [12]; 2.0 kg ha^−1, AMARE | [13]; 4.0 kg ha^−1, ECHCG | [15]; 4.0 kg ha^−1, SETFA
65%: [2]; 2.0 kg ha^−1, IPOHE | [4]; 4.0 kg ha^−1, ABUTH
50%: [5]; 1.0 kg ha^−1, AMARE | [5]; 4.0 kg ha^−1, AMARE | [8]; 1.0 kg ha^−1, SETFA | [8]; 2.0 kg ha^−1, SETFA
90%: [6]; 4.0 kg ha^−1, ECHCG
70%: [3]; 4.0 kg ha^−1, HELAN | [6]; 1.0 kg ha^−1, ECHCG | [6]; 2.0 kg ha^−1, ECHCG | [8]; 4.0 kg ha^−1, SETFA
40%: [3]; 1.0 kg ha^−1, HELAN | [4]; 0.5 kg ha^−1, ABUTH | [5]; 2.0 kg ha^−1, AMARE | [7]; 0.5 kg ha^−1, AVEFA | [8]; 0.5 kg ha^−1, SETFA | [12]; 4.0 kg ha^−1, AMARE
75%: [2]; 4.0 kg ha^−1, IPOHE
85%: [7]; 4.0 kg ha^−1, AVEFA
10%: [14]; 4.0 kg ha^−1, AVEFA
60%: [1]; 2.0 kg ha^−1, ALOMY | [1]; 4.0 kg ha^−1, ALOMY | [2]; 0.5 kg ha^−1, IPOHE | [2]; 1.0 kg ha^−1, IPOHE | [3]; 2.0 kg ha^−1, HELAN | [4]; 1.0 kg ha^−1, ABUTH | [4]; 2.0 kg ha^−1, ABUTH | [6]; 0.5 kg ha^−1, ECHCG | [7]; 1.0 kg ha^−1, AVEFA | [7]; 2.0 kg ha^−1, AVEFA
20%: [9]; 2.0 kg ha^−1, ALOMY | [10]; 4.0 kg ha^−1, IPOHE | [11]; 2.0 kg ha^−1, ABUTH | [13]; 2.0 kg ha^−1, ECHCG | [15]; 2.0 kg ha^−1, SETFA
